Reference: US7452997B2 (priority 2004, dated 2008)

These compounds were tested against T1, human CB1 receptor (Homo sapiens, UniProt P21554) (assay: biochemical). Conditions: not given.
T1 construct: expressed in transfected cells; host or cells: SK-N-MC cells, stably transfected with pcDNA3 CB-1 (human); semi-purified membrane pellet
Format: binding
Protocol: (§1) Binding Assay for CB1 or CB2 Agonists or Inverse Agonists
(§2) The human CB1 and CB2 receptors were stably expressed in SK-N-MC cells transfected with pcDNA3 CB-1 (human) or pcDNA3 CB-2 (human). The cells were grown in T-180 cell culture flasks under standard cell culture conditions at 37° C. in a 5% CO2 atmosphere. The cells were harvested by trysinization and homogenized in a homogenization buffer (10 mM Tris, 0.2 mM MgCl2, 5 mM KCl, with protease inhibitors aprotinin, leupeptin, pepstatin A and bacitracin) and centrifuged (2000 g). The supernatant was then centrifuged in 2M sucrose (31,300 g) to produce a semi-purified membrane pellet. The pellet was resuspended in homogenization and store at −80° C.
On the day of the assay, the pellet was thawed on ice and diluted in assay buffer (50 mM Tris-HCl, 5 mM MgCl2, 2.5 mM EDTA, 0.5 mg/mL fatty acid free bovine serum albumin, pH 7.5). […] The plate was covered and incubated for 90 minutes at 30° C. The contents were then aspirated onto a Packard […] GF/C filter bottom plate prewet with 0.5% polyethyleneimine. The wells of the polypropylene plate were rinsed and aspirated seven times with a 0.9% saline-0.5% TWEEN 20 solution. The […] plate was dried, a scintillation cocktail was added to each well and the counts representing binding were quantitated in a TOPCOUNT scintillation counter.
(§3) The IC50 binding values for compounds tested were calculated by linear regression and were obtained from studies in which varying compound concentrations were used.

T1 sequence (P21554 whole entry): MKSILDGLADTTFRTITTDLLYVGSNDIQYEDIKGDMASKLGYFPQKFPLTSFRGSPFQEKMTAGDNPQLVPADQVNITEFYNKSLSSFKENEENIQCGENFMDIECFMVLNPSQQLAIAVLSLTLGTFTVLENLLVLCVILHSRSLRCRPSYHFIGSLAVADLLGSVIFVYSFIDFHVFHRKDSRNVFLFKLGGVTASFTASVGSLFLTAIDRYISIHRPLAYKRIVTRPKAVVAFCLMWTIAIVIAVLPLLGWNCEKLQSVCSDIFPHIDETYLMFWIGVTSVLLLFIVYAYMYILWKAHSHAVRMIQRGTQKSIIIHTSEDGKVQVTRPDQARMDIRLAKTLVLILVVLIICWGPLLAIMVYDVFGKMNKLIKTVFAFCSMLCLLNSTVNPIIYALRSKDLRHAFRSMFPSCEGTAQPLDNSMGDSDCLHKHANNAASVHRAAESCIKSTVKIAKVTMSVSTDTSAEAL

SMILES	IC50
CC12CCC(C1)C(C)(C)C2NC(=O)CCc1nn(C2CCCCC2)c2c1CCCC2 (stereo not shown) [Cpd 50, 3-(1-cyclohexyl-4,5,6,7-tetrahydro-1H-indazol-3-yl)-N-(1,3,3-trimethyl-bicyclo[2.2.1]hept-2-yl)-propionamide]	255 nM
O=C(N[C@H]1CCCC[C@H]1CO)c1nn(C2CCCCC2)c2c1CCCC2Cl (stereo partly drawn) [Cpd 60, 7-chloro-1-cyclohexyl-4,5,6,7-tetrahydro-1H-indazole-3-carboxylic acid [(1S,2R)-2-hydroxymethyl-cyclohexyl]-amide]	5230 nM
CC(C)(Cc1nn(C2CCCCC2)c2c1CCCC2)C(=O)NC1C2CC3CC(C2)CC1C3 (stereo not shown) [Cpd 66, N-adamantan-2-yl-3-(1-cyclohexyl-4,5,6,7-tetrahydro-1H-indazol-3-yl)-2,2-dimethyl-propionamide]	3590 nM
CN(C)C(=O)NC1CCc2c(c(C(=O)NC3C4CC5CC(C4)CC3C5)nn2C2CCCCC2)C1 (stereo not shown) [Cpd 89, 1-cyclohexyl-5-(3,3-dimethyl-ureido)-4,5,6,7-tetrahydro-1H-indazole-3-carboxylic acid adamantan-2-ylamide]	3700 nM
CC12CCC(C1)C(C)(C)C2NC(=O)c1nn(C2CCCCC2)c2c1CC(N)CC2 (stereo not shown) [Cpd 92, 5-amino-1-cyclohexyl-4,5,6,7-tetrahydro-1H-indazole-3-carboxylic acid (1,3,3-trimethyl-bicyclo[2.2.1]hept-2-yl)-amide]	1600 nM
CC12CCC(C1)C(C)(C)C2NC(=O)c1nn(C2CCCCC2)c2c1CC(O)CC2 (stereo not shown) [Cpd 93, 1-cyclohexyl-5-hydroxy-4,5,6,7-tetrahydro-1H-indazole-3-carboxylic acid (1,3,3-trimethyl-bicyclo[2.2.1]hept-2-yl)-amide]	1150 nM
CCOC(=O)C1CCc2c(c(C(=O)NC(C)C34CC5CC(CC(C5)C3)C4)nn2C2CCCCC2)C1 (stereo not shown) [Cpd 132]	2900 nM
O=C(NN1CCCC1)c1nn(-c2ccc(Cl)cc2Cl)c2c1CCCC2=Cc1ccc(Cl)s1 [compound 393]	43 nM
C[C@@H](NC(=O)c1nn(-c2ccc(Cl)cc2Cl)c2c1CCCC2=Cc1ccc(Br)o1)c1ccccc1 [compound 397]	59 nM
C[C@@H](NC(=O)c1nn(-c2ccc(Cl)cc2Cl)c2c1CCC/C2=C\c1ccc(Br)o1)C1CCCCC1 [compound 398]	48 nM

The compounds below were run against human CB2 receptor (Homo sapiens, UniProt P34972) (assay: Binding assay, cannabinoid CB2 receptor ([3H]-CP-55,940 displacement)). Conditions: Cannabinoid CB2 Receptor Binding IC50, human CB2 receptor, SK-N-MC cell membranes, radioligand CP-55,940 0.2 nM.
human CB2 receptor, sequence (P34972 whole entry): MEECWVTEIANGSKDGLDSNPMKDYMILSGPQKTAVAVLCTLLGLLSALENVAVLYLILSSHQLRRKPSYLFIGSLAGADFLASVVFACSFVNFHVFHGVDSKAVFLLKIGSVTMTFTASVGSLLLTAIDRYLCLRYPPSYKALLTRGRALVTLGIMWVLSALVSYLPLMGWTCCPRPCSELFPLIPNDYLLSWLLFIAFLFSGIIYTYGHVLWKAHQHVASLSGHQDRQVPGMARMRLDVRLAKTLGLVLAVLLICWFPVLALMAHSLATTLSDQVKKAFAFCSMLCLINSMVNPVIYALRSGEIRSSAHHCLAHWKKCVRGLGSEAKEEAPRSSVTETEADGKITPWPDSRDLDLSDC
Protocol: as §1, §2
On the day of the assay, the pellet was thawed on ice and diluted in assay buffer (50 mM Tris-HCl, 5 mM MgCl2, 2.5 mM EDTA, 0.5 mg/mL fatty acid free bovine serum albumin, pH 7.5). The diluted membrane was added with buffer, test compound or standard and the radioligand [H]^3+-CP-55,940_(0.2 nM) to the wells of a 96-well polypropylene plate. Non-specific binding was measured in wells containing 10 uM WIN 55,212. The plate was covered and incubated for 90 minutes at 30° C. The contents were then aspirated onto a Packard UNIFILTER GF/C filter bottom plate prewet with 0.5% polyethyleneimine. The wells of the polypropylene plate were rinsed and aspirated seven times with a 0.9% saline-0.5% TWEEN 20 solution. The UNIFILTER plate was dried, a scintillation cocktail was added to each well and the counts representing binding were quantitated in a TOPCOUNT scintillation counter.
as §3

SMILES	IC50
CC12CCC(C1)C(C)(C)C2NC(=O)CCc1nn(C2CCCCC2)c2c1CCCC2 (stereo not shown) [Cpd 50, 3-(1-cyclohexyl-4,5,6,7-tetrahydro-1H-indazol-3-yl)-N-(1,3,3-trimethyl-bicyclo[2.2.1]hept-2-yl)-propionamide]	13 nM
O=C(N[C@H]1CCCC[C@H]1CO)c1nn(C2CCCCC2)c2c1CCCC2Cl (stereo partly drawn) [Cpd 60, 7-chloro-1-cyclohexyl-4,5,6,7-tetrahydro-1H-indazole-3-carboxylic acid [(1S,2R)-2-hydroxymethyl-cyclohexyl]-amide]	515 nM
CC(C)(Cc1nn(C2CCCCC2)c2c1CCCC2)C(=O)NC1C2CC3CC(C2)CC1C3 (stereo not shown) [Cpd 66, N-adamantan-2-yl-3-(1-cyclohexyl-4,5,6,7-tetrahydro-1H-indazol-3-yl)-2,2-dimethyl-propionamide]	1400 nM
CC(C)(C)OC(=O)NC1CCc2c(c(C(=O)NC3C4(C)CCC(C4)C3(C)C)nn2C2CCCCC2)C1 (stereo not shown) [Cpd 86, [1-cyclohexyl-3-(1,3,3-trimethyl-bicyclo[2.2.1]hept-2-ylcarbamoyl)-4,5,6,7-tetrahydro-1H-indazol-5-yl]-carbamic acid tert-butyl ester]	275 nM
CN(C)C(=O)NC1CCc2c(c(C(=O)NC3C4CC5CC(C4)CC3C5)nn2C2CCCCC2)C1 (stereo not shown) [Cpd 89, 1-cyclohexyl-5-(3,3-dimethyl-ureido)-4,5,6,7-tetrahydro-1H-indazole-3-carboxylic acid adamantan-2-ylamide]	1.4 nM
CC12CCC(C1)C(C)(C)C2NC(=O)c1nn(C2CCCCC2)c2c1CC(N)CC2 (stereo not shown) [Cpd 92, 5-amino-1-cyclohexyl-4,5,6,7-tetrahydro-1H-indazole-3-carboxylic acid (1,3,3-trimethyl-bicyclo[2.2.1]hept-2-yl)-amide]	90 nM
CC12CCC(C1)C(C)(C)C2NC(=O)c1nn(C2CCCCC2)c2c1CC(O)CC2 (stereo not shown) [Cpd 93, 1-cyclohexyl-5-hydroxy-4,5,6,7-tetrahydro-1H-indazole-3-carboxylic acid (1,3,3-trimethyl-bicyclo[2.2.1]hept-2-yl)-amide]	20 nM
CCOC(=O)C1CCc2c(c(C(=O)NC(C)C34CC5CC(CC(C5)C3)C4)nn2C2CCCCC2)C1 (stereo not shown) [Cpd 132]	25.5 nM
COc1ccc(C(=O)CNC(=O)c2nn(C3CCCCC3)c3c2CCCC3)cc1 [Cpd 176]	4000 nM
O=C(Nc1nn(C2CCCCC2)c2c1CCCC2)c1ccc2ccccc2c1 [Cpd 178, naphthalene-2-carboxylic acid (1-cyclohexyl-4,5,6,7-tetrahydro-1H-indazol-3-yl)-amide]	2900 nM
O=C(Nc1nn(C2CCCCC2)c2c1CCCC2)NC12CC3CC(CC(C3)C1)C2 [Cpd 182, 1-adamantan-1-yl-3-(1-cyclohexyl-4,5,6,7-tetrahydro-1H-indazol-3-yl)-urea]	28 nM
CC(C)(C)CC(C)(C)NC(=O)C1CCc2c(c(C(=O)NC3C4CC5CC(C4)CC3C5)nn2C2CCCCC2)C1 (stereo not shown) [Cpd 228, 1-cyclohexyl-4,5,6,7-tetrahydro-1H-indazole-3,5-dicarboxylic acid 3-adamantan-2-ylamide 5-[(1,1,3,3-tetramethyl-butyl)-amide]]	250 nM
C[C@@H](NC(=O)C=Cc1nn(Cc2ccccc2)c2c1CCCC2)c1ccccc1 [Cpd 306, 3-(1-benzyl-4,5,6,7-tetrahydro-1H-indazol-3-yl)-N-[(1R)-1-phenyl-ethyl]-acrylamide]	1800 nM
CN1C2CCC1CC(NC(=O)c1nn(C3CCCCC3)c3c1CCCC3)C2 (stereo not shown) [compound 46]	9200 nM
CCOC(=O)c1c(NC(=O)c2nn(C3CCCCC3)c3c2CCCC3)sc2c1CCCCC2 [compound 55]	7900 nM
CCOC(=O)c1c(NC(=O)c2nn(C3CCCCC3)c3c2CCCC3)sc2c1CCC2 [compound 56]	20000 nM
CC(C)(C)C1CCc2c(c(C(=O)NC3C4(C)CCC(C4)C3(C)C)nn2-c2ccccc2)C1 (stereo not shown) [compound 111]	170 nM

SMILES	IC50
CC(C)(C)C1CCc2c(c(C(=O)NC34CC5CC(CC(C5)C3)C4)nn2-c2ccccc2)C1 (stereo not shown) [compound 113]	770 nM
C[C@@H](NC(=O)c1nn(-c2ccccc2)c2c1CC(C(C)(C)C)CC2)C1CCCCC1 (stereo partly shown) [compound 114]	530 nM
CCOC(=O)C1CCc2c(c(C(=O)NC3C4CC5CC(C4)CC3C5)nn2-c2ccccc2)C1 (stereo not shown) [compound 115]	180 nM
CCOC(=O)C1CCc2c(c(C(=O)NCC34CC5CC(CC(C5)C3)C4)nn2-c2ccccc2)C1 (stereo not shown) [compound 117]	370 nM
CCOC(=O)C1CCc2c(c(C(=O)NC34CC5CC(CC(C5)C3)C4)nn2-c2ccccc2)C1 (stereo not shown) [compound 118]	400 nM
CC12CCC(C1)C(C)(C)C2NC(=O)c1nn(-c2ccccn2)c2c1CCCC2 (stereo not shown) [compound 160]	3500 nM
CC(NC(=O)c1nn(Cc2ccccc2)c2c1CC(C(=O)O)CC2)C12CC3CC(CC(C3)C1)C2 (stereo not shown) [compound 166]	1700 nM
CC12CCC(C1)C(C)(C)C2NC(=O)c1nn(C2CCCCC2)c2c1CC(C(N)=O)CC2 (stereo not shown) [compound 170]	300 nM
O=C(CNC(=O)c1nn(C2CCCCC2)c2c1CCCC2)c1ccccc1 [compound 188]	5100 nM
CCOC(=O)[C@H]1C2CCC(C2)[C@H]1NC(=O)c1nn(-c2ccc(F)cc2)c2c1CCCC2CC (stereo partly shown) [compound 191]	190 nM
CCOC(=O)C1CCc2c(c(C(=O)NN3CCCCC3)nn2C2CCCCC2)C1 (stereo not shown) [compound 229]	1300 nM
O=C(NC1C2CC3CC(C2)CC1C3)c1nn(Cc2ccccc2)c2c1CC(C(=O)O)CC2 (stereo not shown) [compound 239]	300 nM
O=C(NCC(O)c1ccc(Br)cc1)c1nn(C2CCCCC2)c2c1CCCC2 (stereo not shown) [compound 240]	1700 nM
C[C@@H](NC(=O)c1nn(C2CCCCC2)c2c1CC(NC(=O)OC(C)(C)C)CC2)C1CCCCC1 (stereo partly shown) [compound 286]	2700 nM
O=C(NNC1CCCCCCC1)c1nn(-c2ccc(F)cc2)c2c1CCCC2 [compound 299]	5520 nM
O=C(Nc1nn(Cc2ccccc2)c2c1CCCC2)NC12CC3CC(CC(C3)C1)C2 [compound 337]	80 nM

Same assay, conditions: human CB2 receptor, SK-N-MC cell membranes, radioligand CP-55,940 0.2 nM; read-out: Cannabinoid CB2 Receptor Binding IC50

IC50	SMILES
3690 nM	COC(=O)C(Cc1ccc(OCc2ccccc2)cc1)NC(=O)c1c2c(nn1-c1ccc(OC)cc1)CCCC2 (stereo not shown) [compound 4]
21200 nM	COc1ccc(-n2nc3c(c2C(=O)NCCc2ccc(N)cc2)CCCC3)cc1 [compound 8]
6270 nM	CCN(C(=O)c1c2c(nn1-c1ccc(OC)cc1)CCCC2)c1ccccc1OC [compound 121]
11800 nM	O=C(NC1C2CCC(C2)C1C(=O)O)c1nn(C2CCCCC2)c2c1CC(C(=O)O)CC2 (stereo not shown) [compound 138]
2290 nM	O=C(Nc1nn(C2CCCCC2)c2c1CCCC2)c1ccccc1 [compound 186]

SMILES	IC50
O=C(NC1CN2CCC1CC2)c1nn(C2CCCCC2)c2c1CCCC2 (stereo not shown) [compound 225]	650 nM
